{"source": "patent US20190183896A1", "about": "“ONE STEP MILLING PROCESS FOR PREPARING MICRONIZED PALIPERIDONE ESTERS” (SpecGX LLC, priority 2017, published 2019)", "experiment": "Particle size measurement of milled suspension (MALVERN MASTERSIZER 3000, in deionized water)", "assay_type": "physicochemical", "details": "mean; suspension of Example 1 milled 20 minutes with 700 micron polystyrene grinding media (Example 2); measured in deionized water", "protocol": "The suspension from Example 1 (6-35 w/v %) was milled in a NETZSCH MINICER bead mill using 700 micron polystyrene grinding media (40-85% media load). The mixture was milled at a speed of 3.1-5.5 m/s at 15-25° C. for 20 minutes.\nFollowing milling, particle size was measured, in deionized water, using a MALVERN MASTERSIZER 3000 particle size analyzer. The mean milled paliperidone palmitate particle size distribution of the suspension was D90 less than 20 micron, D50 less than 10 micron, and a D10 less than 3 micron (FIG. 1).", "data": [{"smiles": "CCCCCCCCCCCCCCCC(=O)OC1CCCn2c1nc(C)c(CCN1CCC(c3noc4cc(F)ccc34)CC1)c2=O", "note": "(stereo not drawn) [paliperidone palmitate, 3-(2-(4-(6-fluoro-3a,7a-dihydrobenzo[d]isoxazol-3-yl)piperidin-1-yl)ethyl)-2-methyl-4-oxo-6,7,8,9-tetrahydro-4H-pyrido[1,2-a]pyrimidin-9-yl palmitate]", "values": [{"measurement": "particle size distribution D10", "result": "less than 3 micron"}, {"measurement": "particle size distribution D50", "result": "less than 10 micron"}, {"measurement": "particle size distribution D90", "result": "less than 20 micron"}]}]}
